Test [1] concerns panel of 32 established human OVCA cell lines. The experiment in a line: Cell proliferation dose response (IncuCyte ZOOM), 48 h, whole panel. The conditions noted are these: 32 OVCA cell lines, threshold for sensitive, read-out: geometric median of GI50. It is filed as cell-based. The method, then: The in vitro effects of CX-5461 on human OVCA cells were evaluated using a panel of 32 established human OVCA cell lines. These cell lines were selected to be representative of a range of histologic OVCA subtypes (Supplementary Table 1). Increasing concentrations (1 nM–10 μM) of CX-5461 were used to assess the concentration of drug that induced a 50% reduction in cell proliferation (GI50) at 48 hours (h). […] There was no statistically significant correlation between TP53 mutation status and sensitivity to CX-5461 (Supplementary Table 1, Fig. 1b). The efficacy of growth inhibition by CX-5461 correlated with a higher rate of basal rDNA transcription in the sensitive compared with the resistant OVCA cell lines (Fig. 1c).
Fig. 1 Sensitivity of ovarian cancer (OVCA) cell lines to CX-5461. a CX-5461 doses that induce 50% growth inhibition (GI50) at 48 hours. Error bars represent mean ± standard deviation (SD). […]
For assessing OVCA cells’ sensitivity to CX-5461, dose response curves were generated for each cell line by plating cells in 96-well plates, culturing them for 24 hours and then treating them with either vehicle or increasing concentrations of drug (0, 0.001, 0.003, 0.01, 0.03, 0.1, 0.3, 1, 3, 10 and 30 μM CX-5461) for 48 h. Cell number was assessed using the IncuCyte ZOOM imaging system (Essen BioScience). […] During this time the degree of confluency was measured every 24 h. […]

Another test concerns OVCAR4 cells. The experiment in a line: Mini drug screen, proliferation by DAPI staining and Cellomics imaging. It is filed as cell-based, human. The conditions noted are these: OVCAR4. The text has this:
Since CX-5461 in combination with BMN-673 lead to increased DNA damage, we hypothesized that combining CX-5461 with PARPi or other DNA repair and DDR inhibitors (DDR therapy) may improve the efficacy of treating HGSOC. We therefore performed a focused/boutique drug screen in the HR-proficient OVCAR4 cells for DNA repair and DDR inhibitors that may cooperate with CX-5461 to enhance growth arrest (Fig. 8a). […] We next examined the cooperation between CX-5461 and BMN-673 or ATRi in inducing cell death in three additional HR-proficient HGSOC cell lines (Supplementary Fig. 3C) and identified robust and significant interactions between BMN-673 and CX-5461 in inducing cell death compared with the ATRi (VE-821) (Fig. 8b). In addition, dose-response curves of BMN-673 in the presence or absence of CX-5461 confirmed CX-5461’s strong interaction with BMN-673 (Fig. 8c).
Colour-coding denotes the level of proliferation as measured by DAPI staining and imaging using Cellomics (green denotes reduced proliferation). Dose response of single drug treatments were corrected for vehicle control and the combination was corrected for response to 80 nM CX-5461, the average values of n = 5 are presented. The combination of CX-5461 with BMN-673 or ATRi is highlighted by yellow boxes. b Quantitation of SubG1 DNA content by PI staining of cells treated with vehicle, 100 nM CX-5461, 1 μM VE-821, 100 nM BMN-673 or in combination for 7 days (n = 3 biologically independent experiments). Error bars represent mean ± SEM. Flow cytometry gating strategy is shown in Supplementary Fig. 3D. C) Representative BMN-673 dose response curves ± 30 nM CX-5461. Cell proliferation was measured using SRB assays at 5 days post-treatment. Dose response curves for BMN-673 were corrected for DMSO treatment control and the combination was corrected for response to 30 nM CX-5461. Representative of three biological replicates. Error bars represent mean ± SEM of n = 5 technical replicates. d BrdU cell cycle analysis of cells treated with vehicle, 1 μM CX-5461, 100 nM BMN-673 or in combination for 72 h as described in Fig. 3b and Supplementary Fig. 3D. n = 3, mean ± SEM. e In vitro proliferation time-course assessed by cell confluency using IncuCyte ZOOM. Representative of n = 3 biological replicates, mean ± SEM of five technical replicates. Dashed lines denote re-supplement of media with drugs. f CX-5461 and BMN-673 cooperate in inhibiting clonogenic survival. Representative image of n = 6 biologically independent experiments for OVCAR8 and OVCAR8 RAD51C KO cells and n = 3 biological replicates for FT282 cells, mean ± SEM. g Clonogenic assay of OV90 cells. n = 3 technical replicates. Statistical analysis (in b, d and f) was performed using a two-sided one-way ANOVA, Tukey’s multiple comparisons test (adjusted p-values are shown). TEXT PRINTED IN THE PICTURE: (a) CX-5461: GI20 80 nM

The subject of test [2] is replication forks in OVCAR8 cells. The experiment in a line: DNA fibre analysis after 24 h pre-treatment. It is filed as cell-based, human. Particulars: OVCAR8, 100 nM, 24 h pre-treatment then CldU/IdU labelling.
Procedure: Error bars represent mean ± SD. d DNA fibre analysis of OVCAR8 cells pre-treated with 100 nM CX-5461, 100 nM BMN-673 or in combination, washed then sequentially labelled with CldU and IdU as indicated in the schematic (top). Fibres were processed and analyzed as described above. n = 150 replication tracks were analysed over two independent experiments. Error bars represent mean ± SD.
We therefore performed DNA fibre analysis to investigate the effect of CX-5461 on fork stabilization (Fig. 6c and Supplementary Fig. 8A) in OVCAR8 cells. Nascent replication tracks were sequentially labelled with CldU and IdU before treatment with CX-5461 for 3 h. […] We next assessed whether DNA damage induced by CX-5461 treatment affects fork progression by pre-treating cells with CX-5461 for 24 h and then pulse labelled with both analogs (Fig. 6d).

Take `Cc1cnc(CNC(=O)c2c(=O)c3ccc(N4CCCN(C)CC4)nc3n3c2sc2ccccc23)cn1` [CX-5461]: the concentration for 50% growth inhibition (GI50) in test [1] came out at 363 nM. In addition, in the test on OVCAR4 cells, the GI20 stood at 80 nM. In addition, in test [2], the “fork progression / fork length” value is “no effect on fork length”.

As usually defined, the GI50 is the concentration that inhibits growth by half.

The values are drawn from paper PMC7251123, “CX-5461 activates the DNA damage response and demonstrates therapeutic efficacy in high-grade serous ovarian cancer” (Nature Communications, 2020).
